According to patent US6602910B2, “D-enantiomer of DFMO and methods of use therefor” (priority 2000, dated 2003):
Like-named read-outs stand apart in the source and are kept apart here.

What was measured:
[1] = tested on: MCF-7 human breast tumor; test: MCF-7 human breast cancer xenograft model; type: in vivo, Nude mice; details: 0.5% w/v in drinking water; for animals with partial tumor shrinkage: Day 90, eight animals per group; for mean partial tumor shrinkage: Day 90, in the animals with shrinkage; for tumor growth inhibition: Day 90, in the animals without shrinkage
Experimental: FIG. 11 Mean Tumor weight of MCF-7 human breast tumors in nude […].
Nude mice were implanted with the estrogen-dependent human breast tumor line, MCF-7 (ATCC #HTB22). […] The experiment was terminated on Day 90 (when control tumors had reached a size of 400 mg.). Mice were weighed twice weekly, and tumor measurements were taken by calipers twice weekly, starting at time of DFMO administration (Day 1). Tumor measurements were converted to mg tumor weight by the formula, L^2×W/2.

[2] = rat, in vivo, po, 200 mg/kg
[3] = tested on: hair cells of the basilar membrane; test: Histology of Organ of Corti surface preparations (SDH staining, hair cell damage); details: one guinea pig, 1 g/kg/day for 45 days; most apical 40% normal
Experimental: Surface preparations of the Organ of Corti were evaluated in a limited number of subjects. The animals were decapitated while deeply anesthetized after CAP and CM recording. Cochleae were removed immediately. Both the round and oval windows were opened and the apex of the cochlea was drilled open to facilitate perfusion. The cochleae were perfused with SDH (succinate dehydrogenase) incubative solution (0.05 M sodium succinate, 0.05 M phosphate buffer and 0.05% TetraNitro Blue Tetrazolium) and immersed in the solution for one h (37° C.). Then the cochleae were fixed with 10% formalin for at least 2 days. After fixation, the cochleae were decalcified in 10% EDTA solution (EthyleneDiamine Tetraacetic Acid) for 3 days or longer as needed. Cochlea microdissection was accomplished under a light microscope.
Locations along the surface of the basilar membrane were identified by percent distance from apex, and can be related to the physiological data because sound is encoded in a tonotopic fashion with the highest frequencies represented in the most basal portion of the cochlea.

[4] = tested on: pigmented guinea pigs; test: General toxicity in guinea pigs (mortality, weight gain), daily ip injection; type: in vivo, guinea pig
Source text: Daily weight measurements determined the injection volume.

[5] = rats, 200 mg/kg/day to 1.2 g/kg/day by intubation, up to eight weeks
Experimental: Twenty-four Long Evans pigmented rats (250-275 g) were acquired from Harlan Sprague Dawley (Indianapolis, Ind.) and thirty-six pigmented guinea pigs obtained from Kuiper Rabbit Ranch (Gary, Ind.) at an initial weight of 200-250 g and housed in University of Oklahoma Health Sciences Center animal facility. Subjects were housed under a 12:12 hr light dark cycle with free access to food and water with a room temperature controlled at 21° C.
Twenty-four animals were randomly placed into 8 groups of three subjects each. […] Four additional animals were randomly placed into 2 subsequent groups: 400 and 600 mg/kg/day by gavage twice a day (5 days/week) for 8 weeks. […] Weight measurements were taken daily (5 days/week) with assessment of auditory function performed at the conclusion of dosing.

[6] = tested on: pigmented guinea pigs
Experimental: Auditory thresholds were assessed in the 0.5 g/kg and 1 g/kg/day subjects at day 45 of dosing while the 2 g/kg/day subjects were evaluated at 22 days of dosing. […] Daily weight measurements determined the injection volume. Assessment of auditory function occurred at the conclusion of dosing.
Injections, determined by daily weight measurements, were made ip daily for 45 days.
Continuous tones were used for eliciting CM. Tone bursts were used to elicit the CAP.

[7] = Plasma levels in rats after single oral dose
[8] = tested on: tumor putrescine levels; details: rat-tumor model, infusion; cited from earlier work
[9] = tested on: MCF-7, LNCaP, PC-3, HT-29 cancer cell lines; test: Induction of apoptosis in cell lines (DNA fragmentation ELISA, Hoechst staining); type: cell-based, human; details: DFMO forms at 1 and 10 uM
Experimental: Each of the three forms of DFMO were tested at two concentrations (1 and 10 uM). Adriamycin and calcium chloride were used as positive controls. Apoptosis was assayed using a multi-well plate DNA fragmentation assay according to the Cellular DNA Fragmentation ELISA kit (Boehringer Mannheim Biochemicals, Cat. #1585-045) and Hoechst staining.

## NCCC[C@@](N)(C(=O)O)C(F)F [D-DFMO, D enantiomer of difluoromethylornithine]
[1]
  animals with partial tumor shrinkage: four of eight
  mean partial tumor shrinkage: 62.6%
  tumor growth inhibition: 84.7%
[1]; eight animals per group
  toxic death: two animals experienced toxic death
[2]
  plasma level: 102 µg/mL

## NCCCC(N)(C(=O)O)C(F)F (racemic) [D,L-DFMO, 2-(Difluoromethyl)-DL-ornithine]
[3]
  portion of basilar membrane showing hair cell damage: 60%
[4]; 500 mg/kg/day ip, 45 days
  systemic toxicity (growth rate): no apparent signs of systemic toxicity
[4]; 1 g/kg/day ip, 45 days
  weight gain: appear to diverge from the controls during the last 10 days
[4]; 1 g/kg/day ip, full 6 week dosing regimen
  subjects that did not survive: two of the five
[4]; 2 g/kg/day ip, to day 22
  weight gain: effectively blocked
[4]; 3 g/kg/day ip, within the first six days
  animals dying: 100%
[1]
  animals with partial tumor shrinkage: seven of eight
  mean partial tumor shrinkage: 60.4%
  tumor growth inhibition: 99.2%
[5]
  weight change: does not produce any significant weight change
[6]; 500 mg/kg/day ip, day 45
  average loss of auditory sensitivity (CAP), 20 to 40 kHz: 7.1 dB
[6]; 500 mg/kg/day ip, day 45, all frequencies
  CAP threshold elevation, average: 9 dB
[6]; 500 mg/kg/day to 2 g/kg/day ip
  effect on CM sensitivity: not effected
[6]; 1 g/kg/day ip, day 45
  average loss of auditory sensitivity (CAP), 20 to 40 kHz: 17 dB
[6]; 2 g/kg/day ip, 22 days
  CAP threshold average loss across all frequencies: 14 dB
  average loss of auditory sensitivity (CAP), 20 to 40 kHz: 30 dB
[7]; 400 mg/kg orally
  maximum plasma level: 109 µg/mL
[8]
  decrease in tumor putrescine levels: 90%

## COc1cccc2c1C(=O)c1c(O)c3c(c(O)c1C2=O)C[C@@](O)(C(=O)CO)C[C@@H]3O[C@H]1C[C@H](N)[C@H](O)[C@H](C)O1 [adriamycin]
[9]
  apoptosis and cytotoxicity: cytotoxic as well as apoptotic

## (−)-4-difluoromethyl-ornithine [L-DFMO]
[1]
  animals with partial tumor shrinkage: seven of eight
  mean partial tumor shrinkage: 50.0%
  tumor growth inhibition: 5.5%
[7]; 200 mg/kg orally, one to two hours
  plasma level: 45 µg/mL
